In US20220041616A1, “SPIRO COMPOUND AND MEDICAL USES THEREOF” (The National Institutes of Pharmaceutical R&D Co., Ltd., priority 2018, published 2022):

Biological target: T1, ACC1 (Homo sapiens, UniProt Q13085)
T1 construct: purchased BPS bioscience
Assay: In vitro inhibition of ACC1 activity, ADP-Glo Kinase Analysis
Assay type: biochemical
Conditions: 1 nM ACC1, 10 μM acetyl-CoA, 20 μM ATP
Excerpt: ADP-Glo™ Kinase Analysis Kit (Promega) is used for the in vitro analysis of the inhibitory effect of the present compound on ACC1 or ACC2. ADP-Glo™ Kinase Analysis is a kinase detection analysis of luminescence method. ADP is produced in the process of catalyzing the substrate by ACC. ADP is converted into ATP which is then converted into light by Ultra-Glo™ luciferase. ADP is quantified by detecting the light signal, thus the enzyme activity can be measured by quantification of the ADP amount produced during the enzyme reaction. The analysis is carried out in two steps: in the first step, after the kinase reaction, a portion of ADP-Glo™ reagent equal in volume to the kinase reaction system is added to terminate the reaction and consume the remaining ATP; in the second step, a kinase detection reagent is added, which not only converts ADP into ATP, but also uses a coupled luciferase/luciferin reaction to detect newly synthesized ATP.
a. 10 mM compound stock solution (the present compound was dissolved in 100% DMSO to prepare the 10 mM stock solution) was diluted 50-fold to 200 μM with 100% DMSO, and then diluted in equal proportions (1:3) in a 96-well dilution plate (249944, Nunc). The gradient concentrations of the compound were 200 μM, 66.67 μM, 22.22 μM, 7.41 μM, 2.47 μM, 0.823 μM, 0.274 μM, 0.0914 μM, 0.0305 μM, 0.0102 μM, 0.00339 μM and 0.00113 μM.
b. 4.5 μL ACC1 working solution (BPS bioscience) (2.22 nM) was added to each well of a 384-well test plate (6007290, Perkin Elmer).
c. 0.5 μL of the serially diluted compound (prepared in step a) was added to each well of the 384-well test plate, which was centrifuged at 1000 rpm for 1 min and then incubated at room temperature for 15 min. The reaction system with compound GS-0976 at a final concentration of 0.1 μM was used as positive control; the reaction system with no compound but DMSO at a final concentration of 5% was used as negative control.
d. In the 384-well test plate (prepared in step c), 5 μL of the substrate working solution was added to each well to start the enzymatic reaction. The plate was centrifuged at 1000 rpm for 1 min and then incubated at room temperature for 30 min. The final concentration of each component in the ACC1 reaction system: 1 nM ACC1, 10 μM acetyl-CoA, 30 mM NaHCO3, and 20 μM ATP. The final concentration of each component in the ACC2 reaction system: 1.1 nM ACC2, 20 μM acetyl-CoA, 20 mM NaHCO3, and 15 μM ATP. Final concentrations of test compounds: 10 μM, 3.33 μM, 1.11 μM, 0.37 μM, 0.123 μM, 0.0411 μM, 0.0137 μM, 0.00457 μM, 0.00152 μM, 0.00051 μM, 0.00017 μM and 0.000056 μM. The final concentration of DMSO was 5% (v/v).
e. 10 μL of ADP-Glo reagent was added to each well of the 384-well test plate (prepared in step d), which was centrifuged at 1000 rpm for 1 min and then incubated at room temperature for 40 min.
f. 20 μL of kinase detection reagent was added to each well of the 384-well test plate (prepared in step e), which was centrifuged at 1000 rpm for 1 min and then incubated at room temperature for 40 min.
g. The chemiluminescence signal was detected with Perkin Elmer EnVision 2104.
ACC1 working solution and substrate working solution were both prepared with 1× kinase reaction buffer. The buffer was consisting of 50 mM HEPES buffer, 2 mM magnesium chloride, 0.01% BRIJ-35, 2 mM potassium citrate, 50 μg/mL BSA and 2 mM DTT.
The average value of the positive and negative control well and the standard deviation were calculated. The inhibition percentage was calculated according to the following formula: 100×[1−(compound−average value of positive control)/(average value of negative control-average value of positive control)].
IC50 of the compound was obtained using GraphPad Prism 6 software according to the following nonlinear fitting formula:
Y=Bottom+(Top−Bottom)/(1+10^((Log IC50−X)×Hillslope)), […]

IC50 [nM]	SMILES
< 10	COc1ccccc1[C@H](CN1c2sc(-c3ncco3)c(C)c2C(=O)[C@]2(C[C@H](C(=O)NC(C)(C)C(=O)O)C2)C1=O)OC1CCOCC1 [Compound 11, 2-((1s,3S)-7′-((R)-2-(2-methoxyphenyl)-2-((tetrahydro-2H-pyran-4-yl)oxy)ethyl)-3′-methyl-2′-(oxazol-2-yl)-4′,6′-dioxo-6′,7′-dihydro-4′H-spiro[cyclobutane-1,5′-thieno[2,3-b]pyridine]-3-carboxyamido)-2-methylpropionic Acid]
< 10	COc1ccccc1[C@H](CN1c2sc(-c3ncco3)c(C)c2C(=O)[C@]2(C[C@H](C(=O)N(C)C)C2)C1=O)OC1CCOCC1 [Compound 12]
< 10	COc1ccccc1[C@H](CN1c2sc(-c3ncco3)c(C)c2C(=O)[C@]2(C[C@H](C(=O)N[C@@H](C)C(=O)O)C2)C1=O)OC1CCOCC1 [Compound 13]
< 10	COc1ccccc1[C@H](CN1c2sc(-c3ncco3)c(C)c2C(=O)[C@]2(C[C@H](C(=O)N[C@H](C)C(=O)O)C2)C1=O)OC1CCOCC1 [Compound 14, ((1S,3S)-7′-((R)-2-(2-methoxyphenyl)-2-((tetrahydro-2H-pyran-4-yl)oxy)ethyl)-3′-methyl-2′-(oxazol-2-yl)-4′,6′-dioxo-6′,7′-dihydro-4′H-spiro[cyclobutane-1,5′-thieno[2,3-b]pyridine]-3-carbonyl)-D-alanine]
< 10	COC(=O)[C@@H](C)NC(=O)[C@H]1C[C@@]2(C1)C(=O)c1c(sc(-c3ncco3)c1C)N(C[C@H](OC1CCOCC1)c1ccccc1OC)C2=O [Compound 14-1, Methyl ((1S,3S)-7′-((R)-2-(2-methoxyphenyl)-2-((tetrahydro-2H-pyran-4-yl)oxy)ethyl)-3′-methyl-2′-(oxazol-2-yl)-4′,6′-dioxo-6′,7′-dihydro-4′H-spiro[cyclobutane-1,5′-thieno[2,3-b]pyridine]-3-carbonyl)-D-alaninate]
< 10	COc1ccccc1[C@H](CN1c2sc(-c3ncco3)c(C)c2C(=O)[C@]2(C[C@H](C(=O)N(C)CC(=O)O)C2)C1=O)OC1CCOCC1 [Compound 15, N-((1s,3S)-7′-((R)-2-(2-methoxyphenyl)-2-((tetrahydro-2H-pyran-4-yl)oxy)ethyl)-3′-methyl-2′-(oxazol-2-yl)-4′,6′-dioxo-6′,7′-dihydro-4′H-spiro[cyclobutane-1,5′-thieno[2,3-b]pyridine]-3-carbonyl)-N-methylglycine]
< 10	COC(=O)CN(C)C(=O)[C@H]1C[C@@]2(C1)C(=O)c1c(sc(-c3ncco3)c1C)N(C[C@H](OC1CCOCC1)c1ccccc1OC)C2=O [Compound 15-1, Methyl N-((1s,3S)-7′-((R)-2-(2-methoxyphenyl)-2-((tetrahydro-2H-pyran-4-yl)oxy)ethyl)-3′-methyl-2′-(oxazol-2-yl)-4′,6′-dioxo-6′,7′-dihydro-4′H-spiro[cyclobutane-1,5′-thieno[2,3-b]pyridine]-3-carbonyl)-N-methylglycinate]
< 10	COc1ccccc1[C@H](CN1c2sc(-c3ncco3)c(C)c2C(=O)[C@]2(C[C@H](C(=O)OCC(=O)O)C2)C1=O)OC1CCOCC1 [Compound 16, 2-(((1s,3S)-7′-((R)-2-(2-methoxyphenyl)-2-((tetrahydro-2H-pyran-4-yl)oxy)ethyl)-3′-methyl-2′-(oxazol-2-yl)-4′,6′-dioxo-6′,7′-dihydro-4′H-spiro[cyclobutane-1,5′-thieno[2,3-b]pyridine]-3-carbonyl)oxy)acetic Acid]
< 10	COc1ccccc1[C@H](CN1c2sc(-c3ncco3)c(C)c2C(=O)[C@]2(C[C@H](C(N)=O)C2)C1=O)OC1CCOCC1 [Compound 17]
< 10	COc1ccccc1[C@H](CN1c2sc(-c3ncco3)c(C)c2C(=O)[C@]2(C[C@H](C(=O)NCCO)C2)C1=O)OC1CCOCC1 [Compound 18, (1s,3S)-N-(2-hydroxyethyl)-7′-((R)-2-(2-methoxyphenyl)-2-((tetrahydro-2H-pyran-4-yl)oxy)ethyl)-3′-methyl-2′-(oxazol-2-yl)-4′,6′-dioxo-6′,7′-dihydro-4′H-spiro[cyclobutane-1,5′-thieno[2,3-b]pyridine]-3-carboxamide]
10 to 100	COc1ccccc1[C@H](CN1C(=O)C2(CCN(C(=O)OC(C)(C)C)CC2)C(=O)c2c1sc(-c1ncco1)c2C)OC1CCOCC1 [Compound 20, tert-butyl (R)-7′-(2-(2-methoxyphenyl)-2-((tetrahydro-2H-pyran-4-yl)oxy)ethyl)-3′-methyl-2′-(oxazol-2-yl)-4′,6′-dione-6′,7′-dihydro-4′H-spiro[piperidine-4,5′-thieno[2,3-d]pyridine]-1-carboxylate]
< 10	COc1ccccc1[C@H](CN1C(=O)C2(CCNCC2)C(=O)c2c1sc(-c1ncco1)c2C)OC1CCOCC1 [Compound 21, (R)-7′-(2-(2-methoxyphenyl)-2-((tetrahydro-2H-pyran-4-yl)oxy)ethyl)-3′-methyl-2′-(oxazol-2-yl)-4′H-spiro[piperidine-4,5′-thieno[2,3-d]pyridine]-4′,6′(7′H)-dione]
10 to 100	COC(=O)CN1CCC2(CC1)C(=O)c1c(sc(-c3ncco3)c1C)N(C[C@H](OC1CCOCC1)c1ccccc1OC)C2=O [Compound 22, methyl (R)-2-(7′-(2-(2-methoxyphenyl)-2-((tetrahydro-2H-pyran-4-yl)oxy)ethyl)-3′-methyl-2′-(oxazol-2-yl)-4′,6′-dioxo-6′,7′-dihydro-4′H-spiro[piperidine-4,5′-thieno[2,3-d]pyridine]-1-yl)carboxylate]
< 10	COc1ccccc1[C@H](CN1C(=O)C2(CCN(CC(=O)O)CC2)C(=O)c2c1sc(-c1ncco1)c2C)OC1CCOCC1 [Compound 23, (R)-2-(7′-(2-(2-methoxyphenyl)-2-((tetrahydro-2H-pyran-4-yl)oxy)ethyl)-3′-methyl-2′-(oxazol-2-yl)-4′,6′-dioxo-6′,7′-dihydro-4′H-spiro[piperidine-4,5′-thieno[2,3-d]pyridin]-1-yl)acetic Acid]
10 to 100	COc1ccccc1[C@H](CN1C(=O)C2(CCN(C(C)(C)C(=O)O)CC2)C(=O)c2c1sc(-c1ncco1)c2C)OC1CCOCC1 [Compound 25, (R)-2-(7′-(2-(2-methoxyphenyl)-2-((tetrahydro-2H-pyran-4-yl)oxy)ethyl)-3′-methyl-2′-(oxazol-2-yl)-4′,6′-dioxo-6′,7′-dihydro-4′H-spiro[piperidine-4,5′-thieno[2,3-d]pyridin]-1-yl)-2-methylpropionic Acid]
10 to 100	COC(=O)C(C)(C)N1CCC2(CC1)C(=O)c1c(sc(-c3ncco3)c1C)N(C[C@H](OC1CCOCC1)c1ccccc1OC)C2=O [Compound 25-1, methyl (R)-2-(7′-(2-(2-methoxyphenyl)-2-((tetrahydro-2H-pyran-4-yl)oxy)ethyl)-3′-methyl-2′-(oxazol-2-yl)-4′,6′-dioxo-6′,7′-dihydro-4′H-spiro[piperidine-4,5′-thieno[2,3-d]pyridin]-1-yl)-2-methylpropanoate]
< 10	COC(=O)C(=O)N1CCC2(CC1)C(=O)c1c(sc(-c3ncco3)c1C)N(C[C@H](OC1CCOCC1)c1ccccc1OC)C2=O [Compound 26, methyl (R)-2-(7′-(2-(2-methoxyphenyl)-2-((tetrahydro-2H-pyran-4-yl)oxy)ethyl)-3′-methyl-2′-(oxazol-2-yl)-4′,6′-dioxo-6′,7′-dihydro-4′H-spiro[piperidine-4,5′-thieno[2,3-d]pyridin]-1-yl)-2-oxoacetate]
